Laboratory results reported in the supplement of paper PMC10307832.

How the values were obtained:
Test in all cases: relative viability (nuclei count vs DMSO), 5 days (fraction); higher = more cells survive
Imatinib + Bortezomib = compound: Cc1ccc(NC(=O)c2ccc(CN3CCN(C)CC3)cc2)cc1Nc1nccc(-c2cccnc2)n1 [Imatinib] + CC(C)C[C@H](NC(=O)[C@H](Cc1ccccc1)NC(=O)c1cnccn1)B(O)O [Bortezomib] (partner 0.002 µM)
Outline: (§1)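 Lung cancer cell lines were seeded in 1536-well plates and dosed by pin tool the next day, with either a single drug or a fixed anchor-drug dose combined with five library-drug doses (not always all listed) spaced in √10 steps. Five days later, one step fixed the cells and stained their nuclei (final 0.05% Triton X-100, 1% formaldehyde, 1 ug/ml Hoechst), and nuclei were counted on 4× images. Relative viability is the nuclei count in treated wells divided by the count in vehicle wells, and each value is the median of duplicate plates.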

Imatinib + Luminespib = compound: Cc1ccc(NC(=O)c2ccc(CN3CCN(C)CC3)cc2)cc1Nc1nccc(-c2cccnc2)n1 [Imatinib] + CCNC(=O)c1noc(-c2cc(C(C)C)c(O)cc2O)c1-c1ccc(CN2CCOCC2)cc1 [Luminespib] (partner 0.01 µM)
Outline: as §1

Imatinib + Linsitinib = compound: Cc1ccc(NC(=O)c2ccc(CN3CCN(C)CC3)cc2)cc1Nc1nccc(-c2cccnc2)n1 [Imatinib] + C[C@]1(O)C[C@@H](c2nc(-c3ccc4ccc(-c5ccccc5)nc4c3)c3c(N)nccn32)C1 [Linsitinib] (partner 1 µM)
Outline: as §1

Imatinib + AZD7762 = compound: Cc1ccc(NC(=O)c2ccc(CN3CCN(C)CC3)cc2)cc1Nc1nccc(-c2cccnc2)n1 [Imatinib] + NC(=O)Nc1cc(-c2cccc(F)c2)sc1C(=O)N[C@H]1CCCNC1 [AZD7762] (partner 0.2 µM)
Outline: as §1

Row | Cell Line | relative viability (Imatinib + Bortezomib; first compound 0.02 µM) | relative viability (Imatinib + Bortezomib; first compound 0.6325 µM) | relative viability (Imatinib + Luminespib; first compound 0.02 µM) | relative viability (Imatinib + Luminespib; first compound 0.06325 µM) | relative viability (Imatinib + Luminespib; first compound 0.2 µM) | relative viability (Imatinib + Luminespib; first compound 0.6325 µM) | relative viability (Imatinib + Luminespib; first compound 2 µM) | relative viability (Imatinib + Linsitinib; first compound 0.2 µM) | relative viability (Imatinib + Linsitinib; first compound 0.6325 µM) | relative viability (Imatinib + AZD7762; first compound 0.02 µM) | relative viability (Imatinib + AZD7762; first compound 0.06325 µM) | relative viability (Imatinib + AZD7762; first compound 0.2 µM) | relative viability (Imatinib + AZD7762; first compound 0.6325 µM) | relative viability (Imatinib + AZD7762; first compound 2 µM) | relative viability (Imatinib + Linsitinib; first compound 0.02 µM) | relative viability (Imatinib + Bortezomib; first compound 0.06325 µM) | relative viability (Imatinib + Bortezomib; first compound 0.2 µM) | relative viability (Imatinib + Bortezomib; first compound 2 µM) | relative viability (Imatinib + Linsitinib; first compound 0.06325 µM) | relative viability (Imatinib + Linsitinib; first compound 2 µM)
1 | LCLC-103H | 1.08 | 1.13 | 1.03 | 0.8 | 1.04 | 0.892 | 0.863 | 1.08 | 1.03 | 0.809 | 0.779 | 0.876 | 0.695 | 0.781 |  |  |  |  |  | 
2 | NCI-H1793 |  |  | 0.253 |  | 0.164 | 0.167 | 0.189 | 1.06 | 0.96 | 0.463 |  | 0.279 | 0.286 | 0.197 | 1.09 |  |  |  |  | 
3 | NCI-H520 | 0.781 | 0.558 | 0.21 | 0.236 | 0.23 | 0.189 | 0.198 | 1.02 | 1.14 |  |  |  |  |  | 1.09 | 0.639 | 0.476 | 0.512 | 1.48 | 0.988
4 | SK-LU-1 | 1.59 | 1.1 | 0.212 | 0.222 | 0.201 | 0.243 | 0.188 | 1.15 |  |  |  |  |  |  | 1.58 | 1.22 | 1.31 | 1.26 | 1.22 | 0.951
5 | NCI-H1650 | 0.211 | 0.22 | 0.189 | 0.2 | 0.184 | 0.192 | 0.193 |  |  |  |  |  |  |  |  | 0.204 | 0.22 | 0.233 |  | 
6 | NCI-H1355 | 1.26 | 1.13 |  |  |  |  |  | 0.846 | 0.841 | 0.988 |  | 0.83 | 0.63 | 0.571 | 0.865 |  | 1.31 | 1.18 |  | 0.871
7 | HCC-78 | 0.33 | 0.358 |  |  |  |  |  | 0.563 | 0.524 | 0.592 | 0.714 |  | 0.636 | 0.58 | 0.444 | 0.34 | 0.599 | 0.479 | 0.528 | 0.576
8 | SW 900 |  |  | 0.201 | 0.146 | 0.168 | 0.175 | 0.161 |  |  | 0.784 | 0.572 | 0.605 | 0.619 | 0.529 |  |  |  |  |  | 
9 | NCI-H2009 | 1.05 | 1 | 1.15 |  | 0.888 | 1.08 | 0.934 | 1.21 | 1.24 |  |  |  |  |  | 1.19 | 0.476 | 1.08 | 0.906 | 1.32 | 1.24
10 | NCI-H1299 | 1.05 | 1.03 |  |  |  |  |  | 1.04 | 0.983 |  |  |  |  |  | 1.14 | 1.01 | 0.98 | 1.03 | 1.08 | 
11 | NCI-H1395 |  |  | 0.79 | 0.697 | 0.653 | 0.737 | 0.676 | 1.04 | 1.02 | 0.369 |  | 0.343 | 0.376 | 0.393 | 0.978 |  |  |  |  | 0.975
12 | NCI-H358 |  |  | 0.317 | 0.608 | 0.501 | 0.308 | 0.418 | 0.851 | 0.669 | 0.559 |  | 0.489 | 0.574 | 0.521 | 0.726 |  |  |  |  | 0.863
